# Measured values from patent US11000033B2, “Ketone or oxime compound, and herbicide” (NISSAN CHEMICAL CORPORATION, priority 2014, dated 2021).
# Tests used:
# Format in all cases: in vivo
# Setaria viridis = assay: Test Example 4: herbicidal effect by soil treatment (symbol G)
# How it was run: (§1)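 Seeds were sown in sterilized diluvial soil, covered with about 1.5 cm of soil, and the soil surface was sprayed with a water-diluted emulsion of the compound at a predetermined rate. Plants grew in a greenhouse at 25° C. to 30° C.; effects were scored visually 3 weeks after application.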
# Apera spica-venti [1] = assay: Test Example 4: herbicidal effect by soil treatment (symbol L)
# How it was run: as §1
# Cyperus difformis = assay: Test Example 3: herbicidal effect by foliage application, Wagner pot (symbol E); conditions: application herbicide amount 320 g/ha; for E herbicidal effect grade: Table 24
# How it was run: (§2)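 Weeds and rice were sown in alluvial soil under 0.1–0.5 cm of standing water and grown for 14 days in a 25–30 °C greenhouse. An emulsion of the compound, diluted in water to a set dose, was sprayed evenly onto the foliage. Effect was scored against fixed criteria 3 weeks after treatment.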
# Alopecurus myosuroides [2] = assay: Test Example 5: herbicidal effect by foliage application, plastic box (symbol J); conditions: 320 g/ha, 3 weeks after application
# How it was run: (§3)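 Greenhouse foliar test: seedlings at 14 days, grown 25° C. to 30° C. in sterilized diluvial soil; compound applied as an aqueous dilution of an emulsion; response read 3 weeks after spraying.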
# Abutilon theophrasti = assay: Test Example 4: herbicidal effect by soil treatment (symbol M)
# How it was run: as §1
# [3] = test system: Echinochloa oryzacola Vasing.; assay: Test Example 2: herbicidal activity, application during weed generation in submerged conditions (symbol A); conditions: Table 23; application herbicide amount 320 g/ha; grade 0-5 by criteria of Test Example 1
# How it was run: (§4)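 Alluvial soil in pots was flooded to a 4 cm water depth and sown with a mix of the three weed species, then grown in a greenhouse at 25° C. to 30° C. At the one- to two-leaf stage, an emulsifiable formulation diluted in water to a set dose was applied to the water surface. Effects were scored visually 3 weeks later.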
# Avena fatua = assay: Test Example 4: herbicidal effect by soil treatment (symbol I)
# How it was run: as §1
# Chenopodium album = assay: Test Example 4: herbicidal effect by soil treatment (symbol O)
# How it was run: as §1
# Scirpus juncoides [4] = assay: Test Example 2: herbicidal activity, application during weed generation in submerged conditions (symbol B); conditions: Table 23; application herbicide amount 320 g/ha; grade 0-5 by criteria of Test Example 1
# How it was run: as §4
# corn = assay: Test Example 5: effect on crop by foliage application, plastic box (symbol c); conditions: 320 g/ha, 3 weeks after application
# How it was run: (§5)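 Seeds were sown in spots in sterilized diluvial soil held in a plastic box 21 cm × 13 cm × 7 cm deep, covered with about 1.5 cm of soil, and grown in a greenhouse at 25° C. to 30° C.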
# Scirpus juncoides [5] = assay: Test Example 1: herbicidal activity, application before weed generation in submerged conditions (symbol B); conditions: application herbicide amount 320 g/ha
# How it was run: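 Greenhouse growth at 25–30 °C lasted 3 weeks after treatment, when each weed was graded 0–5 by herbicidal ratio. Treatment was a diluted emulsion applied to the water surface of 4 cm-submerged alluvial soil on the sowing day.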
# Veronica persica = assay: Test Example 4: herbicidal effect by soil treatment (symbol R)
# How it was run: as §1
# Alopecurus myosuroides [6] = assay: Test Example 4: herbicidal effect by soil treatment (symbol J)
# How it was run: as §1
# rapeseed = assay: Test Example 5: effect on crop by foliage application, plastic box (symbol g); conditions: 320 g/ha, 3 weeks after application
# How it was run: as §5
# [7] = test system: Echinochloa crus-galli var. crus-galli; assay: Test Example 3: herbicidal effect by foliage application, Wagner pot (symbol H); conditions: application herbicide amount 320 g/ha; for H (Echinochloa crus-galli var. crus-galli) herbicidal effect grade: Table 24
# How it was run: as §2
# Apera spica-venti [8] = assay: Test Example 5: herbicidal effect by foliage application, plastic box (symbol L); conditions: 320 g/ha, 3 weeks after application
# How it was run: as §3
# [9] = application herbicide amount 320 g/ha
compound,measurement,setting,value
CC(CC1CC(O)=C(c2c(C)cc(C)cc2C)C1=O)=NOCCS(C)(=O)=O (stereo not shown) [1-110],"G: Setaria viridis, herbicidal effect grade",Setaria viridis; 320 g/ha,5 (Herbicidal ratio of 90% or more (almost completely withered))
same,"L: Apera spica-venti, herbicidal effect grade",Apera spica-venti [1]; 320 g/ha,5 (Herbicidal ratio of 90% or more (almost completely withered))
same,"herbicidal effect on E, grade 0-5",Cyperus difformis,5 (Herbicidal ratio of 90% or more (almost completely withered))
same,"J: Alopecurus myosuroides, herbicidal effect (criteria 0-5)",Alopecurus myosuroides [2],5 (Herbicidal ratio of 90% or more (almost completely withered))
same,"M: Abutilon theophrasti, herbicidal effect grade",Abutilon theophrasti; 320 g/ha,0 (Herbicidal ratio of 5% or lower (almost no effect))
same,"Herbicidal effect grade, A: Echinochloa oryzacola Vasing.",[3],2 (Herbicidal ratio of 20% or higher and lower than 40%)
same,"I: Avena fatua, herbicidal effect grade",Avena fatua; 320 g/ha,4 (Herbicidal ratio of 70% or higher and lower than 90%)
same,"O: Chenopodium album, herbicidal effect grade",Chenopodium album; 320 g/ha,0 (Herbicidal ratio of 5% or lower (almost no effect))
same,"Herbicidal effect grade, B: Scirpus juncoides",Scirpus juncoides [4],0 (Herbicidal ratio of 5% or lower (almost no effect))
same,"c: corn, effect on crop (criteria 0-5)",corn,5 (Herbicidal ratio of 90% or more (almost completely withered))
same,"Herbicidal effect grade, B: Scirpus juncoides",Scirpus juncoides [5],0 (Herbicidal ratio of 5% or lower (almost no effect))
same,"R: Veronica persica, herbicidal effect grade",Veronica persica; 320 g/ha,0 (Herbicidal ratio of 5% or lower (almost no effect))
same,"J: Alopecurus myosuroides, herbicidal effect grade",Alopecurus myosuroides [6]; 320 g/ha,5 (Herbicidal ratio of 90% or more (almost completely withered))
same,"g: rapeseed, effect on crop (criteria 0-5)",rapeseed,5 (Herbicidal ratio of 90% or more (almost completely withered))
same,"herbicidal effect on H (Echinochloa crus-galli var. crus-galli), grade 0-5",[7],5 (Herbicidal ratio of 90% or more (almost completely withered))
same,"L: Apera spica-venti, herbicidal effect (criteria 0-5)",Apera spica-venti [8],5 (Herbicidal ratio of 90% or more (almost completely withered))
CC#Cc1cc(C)c(C2=C(O)CC(CC(=NOCC(F)(F)F)C(C)C)C2=O)c(C)c1 (stereo not shown) [9-015],"Herbicidal effect grade, G: Setaria viridis",Setaria viridis; [9],5 (Herbicidal ratio of 90% or more (almost completely withered))
same,"Herbicidal effect grade, L: Apera spica-venti",Apera spica-venti [1]; [9],5 (Herbicidal ratio of 90% or more (almost completely withered))
same,E herbicidal effect grade,Cyperus difformis,5 (Herbicidal ratio of 90% or more (almost completely withered))
same,"J: Alopecurus myosuroides, herbicidal effect grade",Alopecurus myosuroides [2],5 (Herbicidal ratio of 90% or more (almost completely withered))
same,"Herbicidal effect grade, M: Abutilon theophrasti",Abutilon theophrasti; [9],0 (Herbicidal ratio of 5% or lower (almost no effect))
same,"Herbicidal effect grade, A: Echinochloa oryzacola Vasing.",[3],5 (Herbicidal ratio of 90% or more (almost completely withered))
same,"Herbicidal effect grade, I: Avena fatua",Avena fatua; [9],1 (Herbicidal ratio of 5% or higher and lower than 20%)
same,"Herbicidal effect grade, O: Chenopodium album",Chenopodium album; [9],0 (Herbicidal ratio of 5% or lower (almost no effect))
same,"Herbicidal effect grade, B: Scirpus juncoides",Scirpus juncoides [4],3 (Herbicidal ratio of 40% or higher and lower than 70%)
same,"c: corn, effect on crop grade",corn,5 (Herbicidal ratio of 90% or more (almost completely withered))
same,B (Scirpus juncoides) herbicidal effect grade,Scirpus juncoides [5],5 (Herbicidal ratio of 90% or more (almost completely withered))
same,"Herbicidal effect grade, R: Veronica persica",Veronica persica; [9],0 (Herbicidal ratio of 5% or lower (almost no effect))
same,"Herbicidal effect grade, J: Alopecurus myosuroides",Alopecurus myosuroides [6]; [9],5 (Herbicidal ratio of 90% or more (almost completely withered))
same,"g: rapeseed, effect on crop grade",rapeseed,5 (Herbicidal ratio of 90% or more (almost completely withered))
same,H (Echinochloa crus-galli var. crus-galli) herbicidal effect grade,[7],5 (Herbicidal ratio of 90% or more (almost completely withered))
same,"L: Apera spica-venti, herbicidal effect grade",Apera spica-venti [8],5 (Herbicidal ratio of 90% or more (almost completely withered))
COc1cc(Br)cc(C)c1C1=C(O)CC(CC(=O)C2CC2)C1=O (racemic) [14-001],"G: Setaria viridis, herbicidal effect grade",Setaria viridis; [9],5 (Herbicidal ratio of 90% or more (almost completely withered))
same,"L: Apera spica-venti, herbicidal effect grade",Apera spica-venti [1]; [9],5 (Herbicidal ratio of 90% or more (almost completely withered))
same,E herbicidal effect grade,Cyperus difformis,5 (Herbicidal ratio of 90% or more (almost completely withered))
same,"J: Alopecurus myosuroides, herbicidal effect grade",Alopecurus myosuroides [2],5 (Herbicidal ratio of 90% or more (almost completely withered))
same,"M: Abutilon theophrasti, herbicidal effect grade",Abutilon theophrasti; [9],0 (Herbicidal ratio of 5% or lower (almost no effect))
same,"Herbicidal effect grade, A: Echinochloa oryzacola Vasing.",[3],5 (Herbicidal ratio of 90% or more (almost completely withered))
same,"I: Avena fatua, herbicidal effect grade",Avena fatua; [9],5 (Herbicidal ratio of 90% or more (almost completely withered))
same,"O: Chenopodium album, herbicidal effect grade",Chenopodium album; [9],0 (Herbicidal ratio of 5% or lower (almost no effect))
same,"Herbicidal effect grade, B: Scirpus juncoides",Scirpus juncoides [4],0 (Herbicidal ratio of 5% or lower (almost no effect))
same,"c: corn, effect on crop grade",corn,5 (Herbicidal ratio of 90% or more (almost completely withered))
same,B (Scirpus juncoides) herbicidal effect grade,Scirpus juncoides [5],3 (Herbicidal ratio of 40% or higher and lower than 70%)
same,"R: Veronica persica, herbicidal effect grade",Veronica persica; [9],0 (Herbicidal ratio of 5% or lower (almost no effect))
same,"J: Alopecurus myosuroides, herbicidal effect grade",Alopecurus myosuroides [6]; [9],5 (Herbicidal ratio of 90% or more (almost completely withered))
same,"g: rapeseed, effect on crop grade",rapeseed,4 (Herbicidal ratio of 70% or higher and lower than 90%)
same,H (Echinochloa crus-galli var. crus-galli) herbicidal effect grade,[7],5 (Herbicidal ratio of 90% or more (almost completely withered))
same,"L: Apera spica-venti, herbicidal effect grade",Apera spica-venti [8],5 (Herbicidal ratio of 90% or more (almost completely withered))
CC(CC1CC(O)=C(c2c(C)cc(-c3ccc(Cl)cc3)cc2C)C1=O)=NOCC(F)(F)F (stereo not shown) [9-024],"Herbicidal effect grade, G: Setaria viridis",Setaria viridis; [9],5 (Herbicidal ratio of 90% or more (almost completely withered))
same,"Herbicidal effect grade, L: Apera spica-venti",Apera spica-venti [1]; [9],5 (Herbicidal ratio of 90% or more (almost completely withered))
same,E herbicidal effect grade,Cyperus difformis,5 (Herbicidal ratio of 90% or more (almost completely withered))
same,"J: Alopecurus myosuroides, herbicidal effect grade",Alopecurus myosuroides [2],5 (Herbicidal ratio of 90% or more (almost completely withered))
same,"Herbicidal effect grade, M: Abutilon theophrasti",Abutilon theophrasti; [9],0 (Herbicidal ratio of 5% or lower (almost no effect))
same,"Herbicidal effect grade, A: Echinochloa oryzacola Vasing.",[3],3 (Herbicidal ratio of 40% or higher and lower than 70%)
same,"Herbicidal effect grade, I: Avena fatua",Avena fatua; [9],3 (Herbicidal ratio of 40% or higher and lower than 70%)
same,"Herbicidal effect grade, O: Chenopodium album",Chenopodium album; [9],0 (Herbicidal ratio of 5% or lower (almost no effect))
same,"Herbicidal effect grade, B: Scirpus juncoides",Scirpus juncoides [4],3 (Herbicidal ratio of 40% or higher and lower than 70%)
same,"c: corn, effect on crop grade",corn,5 (Herbicidal ratio of 90% or more (almost completely withered))
same,B (Scirpus juncoides) herbicidal effect grade,Scirpus juncoides [5],4 (Herbicidal ratio of 70% or higher and lower than 90%)
same,"Herbicidal effect grade, R: Veronica persica",Veronica persica; [9],4 (Herbicidal ratio of 70% or higher and lower than 90%)
same,"Herbicidal effect grade, J: Alopecurus myosuroides",Alopecurus myosuroides [6]; [9],5 (Herbicidal ratio of 90% or more (almost completely withered))
same,"g: rapeseed, effect on crop grade",rapeseed,4 (Herbicidal ratio of 70% or higher and lower than 90%)
same,H (Echinochloa crus-galli var. crus-galli) herbicidal effect grade,[7],5 (Herbicidal ratio of 90% or more (almost completely withered))
same,"L: Apera spica-venti, herbicidal effect grade",Apera spica-venti [8],5 (Herbicidal ratio of 90% or more (almost completely withered))
